Consider 8 compounds from BindingDB's records for doi:10.1124/jpet.102.035899 (University of Miami, 2002).

Where “and” joins values, the source holds several entries; their conditions need not be identical. Identical values can stand only once.

For experiment [1], the target named is cholinergic receptor, nicotinic, alpha 1 (Muscle) isoform X1 (Xenopus sp., UniProt F6RLM5).
Experiment [2] deals with neuronal acetylcholine receptor subunit alpha-2 (Xenopus tropicalis, UniProt A0A6I8T284).
For experiment [3], the target named is neuronal acetylcholine receptor subunit alpha-4 (Xenopus sp., UniProt A9JRM3).
neuronal acetylcholine receptor subunit alpha-4, sequence (A9JRM3 whole entry): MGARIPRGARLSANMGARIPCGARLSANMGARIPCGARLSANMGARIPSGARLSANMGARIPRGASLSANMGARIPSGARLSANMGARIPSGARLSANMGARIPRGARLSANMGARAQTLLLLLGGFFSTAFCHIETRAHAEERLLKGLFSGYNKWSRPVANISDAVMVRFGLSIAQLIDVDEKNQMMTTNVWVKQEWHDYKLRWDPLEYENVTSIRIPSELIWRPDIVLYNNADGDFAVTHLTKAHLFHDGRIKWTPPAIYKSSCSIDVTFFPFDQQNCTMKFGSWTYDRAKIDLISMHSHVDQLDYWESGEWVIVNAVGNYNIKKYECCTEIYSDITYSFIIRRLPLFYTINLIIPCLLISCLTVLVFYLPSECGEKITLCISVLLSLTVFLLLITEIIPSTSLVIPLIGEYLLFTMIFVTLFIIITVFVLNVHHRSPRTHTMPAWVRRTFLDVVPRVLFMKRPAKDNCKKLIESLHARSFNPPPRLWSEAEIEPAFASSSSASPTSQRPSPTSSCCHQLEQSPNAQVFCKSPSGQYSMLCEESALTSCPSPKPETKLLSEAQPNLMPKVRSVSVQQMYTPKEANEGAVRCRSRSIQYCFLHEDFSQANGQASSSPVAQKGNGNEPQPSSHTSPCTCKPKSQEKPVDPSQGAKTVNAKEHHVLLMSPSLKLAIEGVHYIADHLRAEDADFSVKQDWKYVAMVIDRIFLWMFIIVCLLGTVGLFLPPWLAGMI
The target of experiment [4] is Cholinergic receptor, nicotinic alpha 1 (Xenopus sp., UniProt F6RLA9).
Cholinergic receptor, nicotinic alpha 1, sequence (F6RLA9 whole entry): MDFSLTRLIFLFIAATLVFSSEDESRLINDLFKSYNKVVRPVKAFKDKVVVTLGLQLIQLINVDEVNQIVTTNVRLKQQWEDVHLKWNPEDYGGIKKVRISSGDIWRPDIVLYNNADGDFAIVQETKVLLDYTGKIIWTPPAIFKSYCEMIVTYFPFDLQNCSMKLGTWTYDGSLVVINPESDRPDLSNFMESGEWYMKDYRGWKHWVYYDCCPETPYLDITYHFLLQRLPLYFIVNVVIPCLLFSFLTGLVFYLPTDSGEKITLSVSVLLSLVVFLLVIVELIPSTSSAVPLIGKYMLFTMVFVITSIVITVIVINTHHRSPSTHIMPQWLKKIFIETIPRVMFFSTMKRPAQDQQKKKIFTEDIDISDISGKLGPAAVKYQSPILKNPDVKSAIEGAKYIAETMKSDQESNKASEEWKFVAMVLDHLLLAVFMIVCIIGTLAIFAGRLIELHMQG
Experiment [5] has as its target Cholinergic receptor nicotinic alpha 5 subunit (Xenopus sp., UniProt F7ELS1).

Cholinergic receptor nicotinic alpha 5 subunit, sequence (F7ELS1 whole entry): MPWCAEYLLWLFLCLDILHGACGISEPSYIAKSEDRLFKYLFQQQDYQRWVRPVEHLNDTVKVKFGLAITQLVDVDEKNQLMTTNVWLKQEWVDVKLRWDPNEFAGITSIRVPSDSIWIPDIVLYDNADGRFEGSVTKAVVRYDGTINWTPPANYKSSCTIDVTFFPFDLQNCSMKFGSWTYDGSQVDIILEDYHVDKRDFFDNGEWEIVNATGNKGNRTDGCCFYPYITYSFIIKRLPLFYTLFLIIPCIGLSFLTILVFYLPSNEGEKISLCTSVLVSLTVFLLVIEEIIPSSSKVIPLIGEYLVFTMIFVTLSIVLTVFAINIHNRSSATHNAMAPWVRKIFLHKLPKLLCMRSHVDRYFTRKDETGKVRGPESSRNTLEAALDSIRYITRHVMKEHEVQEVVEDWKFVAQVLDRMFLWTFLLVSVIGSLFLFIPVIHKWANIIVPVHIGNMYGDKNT
neuronal acetylcholine receptor subunit alpha-2, sequence (A0A6I8T284 whole entry): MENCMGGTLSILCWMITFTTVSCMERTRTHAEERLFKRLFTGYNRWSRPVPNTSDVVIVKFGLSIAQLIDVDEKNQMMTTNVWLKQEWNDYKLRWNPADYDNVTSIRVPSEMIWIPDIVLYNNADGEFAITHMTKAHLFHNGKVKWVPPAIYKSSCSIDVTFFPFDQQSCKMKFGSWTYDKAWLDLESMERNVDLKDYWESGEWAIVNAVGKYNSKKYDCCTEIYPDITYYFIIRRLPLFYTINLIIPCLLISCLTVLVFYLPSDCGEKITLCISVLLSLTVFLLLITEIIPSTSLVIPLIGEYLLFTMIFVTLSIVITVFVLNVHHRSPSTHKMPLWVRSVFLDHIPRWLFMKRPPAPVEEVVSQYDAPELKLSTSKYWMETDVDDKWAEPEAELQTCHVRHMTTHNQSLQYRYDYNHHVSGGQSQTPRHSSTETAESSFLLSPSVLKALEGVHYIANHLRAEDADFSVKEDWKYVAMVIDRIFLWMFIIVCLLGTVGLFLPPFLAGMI
cholinergic receptor, nicotinic, alpha 1 (Muscle) isoform X1, sequence (F6RLM5 whole entry, canonical isoform): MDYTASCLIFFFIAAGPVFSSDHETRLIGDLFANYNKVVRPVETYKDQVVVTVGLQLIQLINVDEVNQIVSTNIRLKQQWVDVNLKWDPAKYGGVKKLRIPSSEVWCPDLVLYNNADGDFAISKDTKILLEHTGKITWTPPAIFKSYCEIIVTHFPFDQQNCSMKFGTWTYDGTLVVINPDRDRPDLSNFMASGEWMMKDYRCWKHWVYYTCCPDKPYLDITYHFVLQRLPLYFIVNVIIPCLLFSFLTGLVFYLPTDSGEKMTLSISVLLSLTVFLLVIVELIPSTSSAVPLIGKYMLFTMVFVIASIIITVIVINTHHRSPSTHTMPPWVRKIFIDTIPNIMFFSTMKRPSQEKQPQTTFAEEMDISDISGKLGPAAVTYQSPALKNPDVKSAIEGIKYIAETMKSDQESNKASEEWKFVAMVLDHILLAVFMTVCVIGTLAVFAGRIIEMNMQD

The term Ki denotes a dissociation constant, usually derived from enzyme kinetics or from competition with a known ligand. For `O=c1ccc([C@H]2CC3CCC2N3)c[nH]1` (some centres not stated), the inhibitory constant (Ki) in experiment [1], in experiment [2] and in experiment [3] was 100 nM throughout.
In experiment [2], `Clc1ccc([C@H]2CC3CCC2N3)cn1` (stereo partly drawn) [2-(6-Chloro-pyridin-3-yl)-7-aza-bicyclo[2.2.1]heptane(+/-) epibatidine] yielded a Ki of 87 nM.
Consider `Brc1ccc([C@H]2CC3CCC2N3)cn1` (some centres not stated) [NBEP], for which the inhibitory constant (Ki) in experiment [4] was 0.044 nM; in experiment [5] it was 0.22 nM; in experiment [1] it was 0.004 nM; in experiment [2] it was 0.013 nM and 0.055 nM; in experiment [3] it was 0.01 nM.
In the case of `CN(C)c1ccc([C@H]2CC3CCC2N3)cn1` (some centres not stated) [NDMNEP], the inhibitory constant (Ki) in experiment [1], in experiment [2] and in experiment [3] was 100 nM throughout.
Take `c1cncc([C@H]2CC3CCC2N3)c1` (some centres not stated) [NEP]: the Ki in experiment [4] came to 3.2 nM; in experiment [5], 11 nM; in experiment [1], 0.0031 nM; in experiment [3], 0.0085 nM.
The corresponding values for `Fc1ccc([C@H]2CC3CCC2N3)cn1` (some centres not stated) [NFEP] are 0.48 nM, 2.1 nM, 0.0038 nM and 0.0092 nM.
The corresponding values for `Nc1ccc([C@H]2CC3CCC2N3)cn1` (some centres not stated) [NNEP] are 4.3 nM, 7.2 nM, 0.077 nM and 0.35 nM.
On to `O=S(=O)(Oc1ccc([C@H]2CC3CCC2N3)cn1)C(F)(F)F` (some centres not stated) [NTEP], for which the Ki was 100 nM in experiment [1], 10 nM in experiment [2] and 100 nM in experiment [3].
